According to PMC9791135, “A penetratin-derived peptide reduces the membrane permeabilization and cell toxicity of α-synuclein oligomers” (The Journal of Biological Chemistry, 2022):
Where a SMILES comes first, the peptide text is derived from it.

Assays:
αSO = target: T1, αSO (Homo sapiens, UniProt P37840); assay: Microfluidic diffusional sizing binding affinity (Fluidity One-W), αSO; conditions: 60 μM labeled p216, 0–84 μM αSO, MilliQ water, 15 min in the dark; 1:1 binding fit of Rh; read-out: Dissociation binding constant (Kd) for αSO
T1 construct: made in house; host or cells: Escherichia coli BL21 (DE3); oligomers formed by shaking the monomer and isolated by SEC (Superose 6)
Description: (§1) To determine an actual binding affinity of p216 to αSOs and α-syn, the hydrodynamic radius (Rh) of labeled p216 bound to unlabeled αSOs–α-syn was determined by microfluidic diffusional sizing ([72]). […] Rather, a direct and easily interpretable parameter is provided in the form of the Rh. […] For both species, binding of peptide led to a significant increase in Rh, confirming peptide immobilization in complex with these states. The measured values of ca. 5 and 11 nm for α-syn and αSO, respectively, agree nicely with the known Rh of α-syn ([73]) (4 nm) and αSO (10 nm) ([74]).
(§2) Peptides were labeled with fluidiphore rapid amine 503 (Fluidic Analytics Limited), an amine-reactive fluorescent label whose absorbance shifts from 612 nm (free) to 503 nm when conjugated. About 1 mg dry fluidiphore dye was dissolved in 100 μl acetonitrile and stored at −20 °C. The peptide stock solutions were diluted into labeling buffer (0.1 M NaHCO3, pH 8.3) to a final concentration of 1 mg/ml (100 μl) and mixed with 3 μl of dye solution (final dye concentration of […]) and incubated for 30 min at RT. […]
(§3) Fluidity One-W (Fluidic Analytics Limited) ([101]) was used to measure the binding affinity and Rh of peptides bound to α-syn monomers and oligomers. We determined the lowest concentration of labeled peptides that could be detected by the instrument to be 60 μM. […]

SH-SY5Y cells [1] = assay: MTT cell viability assay, substance alone
Description: (§4) The effect of the peptides on αSOs toxicity in SH-SY5Y cells using 3-(4, 5-dimethylthiazol-2-yl)-2,5-diphenyltetrazolium bromide (MTT) cell viability assay was also tested to complement our calcein data.
(§5) We used the MTT assay to measure cell viability after 24 h treatment with αSOs in the presence of peptides. SH-SY5Y cells were seeded in 96-well plates at a density of 5 × 10^4 cell/ml in Dulbecco's modified Eagle's medium supplemented with 10% FBS, 100 unit/ml penicillin, and […]. The cells were incubated in a humidified atmosphere incubator with 5% CO2 and 95% humidity at 37 °C for 24 h. The culture medium was then replaced with fresh medium containing 10 μM αSOs with peptides and incubated for another 24 h. Then the cell medium was replaced with a fresh medium containing 20% MTT (5 mg/ml), and the cells were incubated for an additional 4 h at 37 °C. Then 100 μl of dimethyl sulfoxide was added to dissolve formazan crystals by incubating for 30 min on a shaker at RT. Consequently, absorbance was measured by using a plate reader at 570 nm.

α-syn [2] = target: T2, α-syn (Homo sapiens, UniProt P37840); assay: Microfluidic diffusional sizing binding affinity (Fluidity One-W), α-syn monomer; conditions: 60 μM labeled p216, 0–400 μM α-syn monomer, MilliQ water, 15 min in the dark; 1:1 binding fit of Rh; read-out: Dissociation binding constant (Kd) for α-syn
T2 construct: made in house; host or cells: Escherichia coli BL21 (DE3), plasmid pET11-D
Description: as §1, §2, §3

αSOs = target: T3, αSOs (Homo sapiens, UniProt P37840); assay: Calcein release assay, αSOs together with peptides; type: biochemical
T3 construct: made in house; host or cells: Escherichia coli BL21 (DE3); oligomers formed by shaking the monomer and isolated by SEC (Superose 6)
Description: αSOs show cytotoxic properties, which have been attributed to their membrane-disrupting ability ([69]). To examine the effect of peptides on membrane permeabilization by αSOs, we used a simple calcein release assay. αSOs, peptides, and aSO–peptide mixtures at 10^−6 to 10^−1 mg/ml peptide were added to calcein-loaded DOPG vesicle, and the extent of calcein release was monitored for 30 min by the increase in fluorescence as calcein leaks out upon membrane permeabilization, leading to dilution and the loss of self-quenching. The time-dependent calcein release data from DOPG vesicles ([70], [71]) in the presence of peptides, αSOs, and αSO–peptides are shown in Figs. S9 and S10. In order to allow easy comparison of all peptides, the calcein release versus concentration (peptides and αSOs) were plotted at the plateau point of release (Fig. 5, A–C). […] Figure 5D compares calcein release percentages of data represented in Figure 5, A and B at peptide concentrations between 0.001 and 0.1 mg/ml, where we see the largest extent of calcein release in general.
Calcein-filled vesicles of DOPG were prepared as described before ([38]). Briefly, DOPG was dissolved in PBS to […], in the presence of calcein at self-quenching concentrations (70 mM) and subjected to 10 freeze–thaw cycles between liquid nitrogen and a 50 °C water bath. After 21 times extrusion through a 100 nm filter, free calcein was separated from vesicles with a PD-10 desalting column (GE Healthcare). Vesicles were stored at 4 °C and used for calcein release assays within 24 h.
Calcein release was measured by mixing peptides and/or αSOs at a final concentration of 10^−6 to 10^−1 mg/ml and 5.2 μg/ml, respectively, in 148 μl with 2 μl of calcein vesicles, and were then loaded onto a 96-well plate (Nunc, Thermo Fischer Scientific) in triplicate. The plate was sealed with Crystal clear sealing tape (Hampton Research), and fluorescence was measured (excitation: 485 nm and emission: 520 nm) for 1 h at 37 °C every 2 min with a 2 s autoshake before each reading on a fluorescence plate reader (Tecan). Finally, 2 μl Triton X-100 (0.2% [v/v]) was added to lyse vesicles, and the maximal fluorescence signal was measured for 20 min under the same reading condition. Background fluorescence was subtracted, and the average signal of calcein release before addition of Triton X-100 (F), after treatment with Triton X-100 (Ft) and for the buffer control (F0) were determined, and calcein release percentage was calculated as follow (Equation 1):(1) CalceinRelease%(CR%)=(F−F0)/(Ft−F0)

SH-SY5Y cells [3] = conditions: 10 μM αSOs (0.14 μg/ml) with 35 μg/ml peptide, 24 h, MTT
Description: as §4, §5

α-syn [4] = conditions: cited from earlier work
Description: Cell-penetrating peptides (CPPs) ([57]) are defined as a short relatively nontoxic and partly hydrophobic and/or polybasic peptides ([…] 5–35 amino acid residues), with a net positive charge at physiological pH. CPPs have the ability of interacting with negatively charged groups on the cellular membrane, which results in their internalization ([58], [59]) but can also cotransport a variety of cargoes inside the cells ([58], [60], [61], [62]). Cationic CPPs are able to translocate across membranes in a nonendocytotic fashion, generally by one of following mechanisms: the inverted micelle mo ...

[5] = vesicles formed by DOPG and other negatively charged lipids; cited from earlier work
Description: Penetratin forms β-structures on vesicles formed by DOPG and other negatively charged lipids (at concentrations >10^−3 mg/ml), leading to membrane perturbation ...

| Compound | Kd (αSO) | Cell viability (MTT) (SH-SY5Y cells [1]; SH-SY5Y cells, 35 μg/ml peptide alone, 24 h) | Toxicity to SH-SY5Y cells, in words (SH-SY5Y cells [1]; peptide alone, MTT) | Kd (α-syn [2]) | Reduction of αSO-induced membrane permeability (αSOs; calcein-filled DOPG LUVs, peptide concentration not stated at the place) | Reduction of αSOs-induced large anionic unilamellar vesicle membrane permeability (αSOs; peptide at 10^−1 to 10^−3 mg/ml) | Increase of cell viability compared with αSOs alone (SH-SY5Y cells [3]) | Effect on fibrillation of α-syn (α-syn [4]) | Concentration at which β-structures form on vesicles, leading to membrane perturbation and permeabilization [5] |
| --- | --- | --- | --- | --- | --- | --- | --- | --- | --- |
| CSCC[C@H](NC(=O)[C@H](CCCNC(=N)N)NC(=O)[C@H](CCCNC(=N)N)NC(=O)[C@H](CC(N)=O)NC(=O)[C@H](CCC(N)=O)NC(=O)[C@H](Cc1ccccc1)NC(=O)[C@@H](N)Cc1c[nH]c2ccccc12)C(=O)N[C@@H](CCCCN)C(=O)N[C@@H](Cc1c[nH]c2ccccc12)C(=O)N[C@@H](CCCCN)C(=O)N[C@@H](CCCCN)C(=O)O [p216] (H-WFQNRRMKWKK-OH) | 2.7 µM | 92% | not toxic | 31.2 µM | 100% | ~100% | about 20% |  |  |
| RQIKIWFQNRRMKWKK [Penetratin, cell-penetrating peptide from the third helix of the Antennapedia protein homeodomain] |  |  |  |  |  |  |  | inhibit fibrillation of α-syn | > 10^−3 mg/ml |
